Marks after values point to notes of the source that are not given here.

The subject of data set [1] is wild-type (AB) zebrafish (Danio rerio). The data set is described as follows: Maximum tolerated concentration (MTC) determination in larval zebrafish. The data set is classed as in vivo. To be noted: after 24 h exposure; 5 dpf larvae. As for the experimental part:
(§1) Larval zebrafish were produced in the University of Toledo zebrafish core facility and housed in an incubator maintained at 28 °C on a 14:10 h cycle. Fish were acclimated to the testing room conditions the evening prior to testing. All testing took place during the 14 h light cycle after the lights had been on for at least 2 h.
Determination of maximum tolerated concentration (adapted from Berghmans)[52] was completed by placing 5 days post fertilization (dpf) wild-type zebrafish larvae in a 24 well plate at 6 fish per well, and one compound concentration per well. […] Death was determined by the absence of heartbeat. Additional endpoints were used to assess toxicity at non-lethal concentrations such as startle capacity (poke stimulus), abnormalities in swimming behavior (loss of dorsoventral balance), and gross morphological deformities (bent body). […] The MTC determination was used to select three doses of each compound (low, medium, high dose) to be used in behavioral assays.

For data set [2] the test system is unchanged. The data set is described as follows: animal or person. The data set is classed as in vivo. To be noted: for Distance moved / Variance turn angle: compound at 10 µM relative to controls, mean ± s.e.m., N = 12; for MEC: locomotor behaviors. As for the experimental part: as §1
The movement of larval zebrafish was monitored with the Noldus behavior recording system (Noldus Information Technology, Leesburg VA) and quantified using EthoVision® XT 15 software (Noldus Information Technology, Leesburg VA). Five-dpf zebrafish larvae were exposed to a range of nonlethal concentrations of compounds in a 24-well plate with appropriate controls. The plate was immediately placed in the incubator for a 30-min exposure period. After 30 min, the plate was transferred to the Noldus system and swimming behavior was recorded in 100% light for 30 min to measure spontaneous swimming behavior. The light was switched off for 10 min (dark period) and then switched on for 10 min (light period), which was then repeated for two additional cycles. In total, the larvae were exposed to three cycles of alternating 10 min dark and light periods (100% darkness-to-100% light). Each drug challenge was conducted on three separate plates with n = 6 larvae/dose/plate.
Absolute turn angle (TA) and angular velocity provided measures of the extent of turning behavior, while the intra-individual variance of turn angle quantified how consistently (low variance) or inconsistently (high variance) fish turned. A lowered intra-individual variance of turning reflected repeatedly performing the same turning behavior, a stereotypy.
All data for exposure and the behavioral end points were analyzed by one-way ANOVA (factor: drug concentration) followed by a Dunnett’s multiple comparisons test for post hoc significance between drug concentration and control group. Statistically significant differences are noted as follows; *p < 0.05; **p < 0.01; ***p < 0.001.

For data set [3] the test system is unchanged. In kind it is in vivo. Conditions: compound at 10 µM relative to controls; mean ± s.e.m., N = 12.
In data set [4] the target is T1, human M1 muscarinic receptors (Homo sapiens, UniProt P11229).
T1 sequence (P11229 1-460): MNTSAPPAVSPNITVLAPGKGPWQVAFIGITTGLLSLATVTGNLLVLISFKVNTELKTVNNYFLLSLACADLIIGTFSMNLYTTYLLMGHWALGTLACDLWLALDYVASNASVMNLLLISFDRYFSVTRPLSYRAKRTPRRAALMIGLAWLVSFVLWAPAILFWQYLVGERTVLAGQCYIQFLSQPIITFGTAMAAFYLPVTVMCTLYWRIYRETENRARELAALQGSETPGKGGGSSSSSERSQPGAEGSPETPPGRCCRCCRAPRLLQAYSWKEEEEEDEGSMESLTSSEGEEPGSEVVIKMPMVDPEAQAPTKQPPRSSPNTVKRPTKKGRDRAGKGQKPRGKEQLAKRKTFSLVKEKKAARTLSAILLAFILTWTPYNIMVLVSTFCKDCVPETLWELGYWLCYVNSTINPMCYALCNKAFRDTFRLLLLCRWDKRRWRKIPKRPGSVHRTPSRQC
Put plainly: [3H]-arachidonic acid release in CHO cells expressing M1 receptors, with and without ACh (single modulator concentration, four-parameter curves). In kind it is cell-based. Details: expressed in transfected cells; host or cells: CHO cells stably transfected with hM1, obtained from Mark Brann's laboratory (NIH). Conditions: for 0.1 µM ACh: response with modulator present divided by response to ACh alone / 100 µM ACh: response with modulator present divided by response to ACh alone / No ACh: agonist effect of the allosteric ligand by itself, fraction of the maximal response that could be elicited by ACh: modulator 10 µM, CHO-hM1, mean ± s.e.m.; for No ACh: agonist effect of the allosteric ligand by itself, fraction of the maximal response that could be elicited by ACh: at least 4 determinations. As for the experimental part:
CHO cells expressing human M1 muscarinic receptors were cultured at 37 °C in a 5% CO2 atmosphere in F12 medium supplemented with 5% fetal bovine serum, 100 units/ml penicillin, and 100 µg/ml streptomycin. These cells were obtained from Mark Brann’s laboratory when they were at NIH and have been in use by us and others for many years.
Measurement of [^3H]AA release was performed as described in Stahl and Ellis[24]. Stably transfected CHO-hM1 cells were seeded on 24-well plates (Greiner Bio-One GmbH, Frickenhausen, Germany) at a density of 5.0 × 10^4 cells/well in 0.5 ml of F-12 medium. Cells were incubated until they attached (approximately 3 h), followed by the addition of [^3H]AA to a final concentration of 0.05 μCi of [^3H]AA per well. The cells were then grown for 16 to 20 h before the assay was performed. [^3H]AA release was measured in Eagle’s basal medium with 20 mM HEPES and 2 mg/ml fatty acid-free bovine serum albumin (EM-BSA). Cells were rinsed twice with EM-BSA, followed by the addition of EM-BSA media containing experimental agents and incubated for 1 h at 37 °C. The assay was terminated by aspiration of the media, and the amount of [^3H]AA released was determined by liquid scintillation counting (Beckman-Coulter LS6500).
Where indicated (Fig. 2), cells were pretreated with POB to reduce the number of available receptors per cell. Stock POB was made up at 10 mM in ethanol and stored at −20C. Each well was pretreated with 0.5 ml of the appropriate concentration in PBS with 1 mM CaCl2 and 1 mM MgCl2 (PBS+ +) for 30 min at 37 °C, followed by 5 washes with PBS+ + . After pretreatment, the normal protocol follows as above.
Tabulated [^3H]AA release data are represented as a fraction of maximal release elicited by ACh or as the fraction of release elicited by the relevant concentration of ACh alone, as indicated. Dose-response curves were normalized to the maximal response of ACh without allosteric ligand. Where indicated, response curves were analyzed using the empirical four-parameter equation: Y=Top+Bottom-Top/1+X/C50^n where X is the concentration of the ligand used, Y is the amount of response, C50 is the concentration of the ligand that produces 50% of the maximal effect, Top and Bottom are the top and bottom plateaus of the curve, and n is related to the Hill slope for the curve. Where indicated, families of response curves were analyzed according to an allosteric operational model[50],[51]: Y=EM[τAA(KB+αβB)+τBBKA]/[τAA(KB+αβB)+τBBKA+AKB+KAKB+KAB+αAB] where EM is the maximal response; A is the concentration of ACh; B is the concentration of the allosteric ligand; τA and τB represent the operational efficacies of A and B, respectively; KA and KB are the equilibrium dissociation constants of A and B; and α and β represent the cooperativities between A and B in terms of binding and activation, respectively. Curve-fitting was carried out with GraphPad Prism, version 5.0 or 6.0 (San Diego CA).

For the compound `COc1cc(CN2C(=O)C(=O)c3ccccc32)cc(OC)c1OC` [Compound 8k, 1-(3,4,5-trimethoxybenzyl)indoline-2,3-dione], the “MTC (maximum tolerated concentration)” value in data set [1] was determined as 30 µM. In data set [2], the Therap. index came to 30, the Distance moved is on record as 66.2 ± 8.4** %, the Variance turn angle is 126.3 ± 10.8* % and the MEC came out at 1 µM. In data set [3], this compound yielded an Angular velocity of 154.2 ± 18.0 %. Besides, in data set [4], the “0.1 µM ACh: response with modulator present divided by response to ACh alone” value worked out at 1.55 ± 0.07; the “100 µM ACh: response with modulator present divided by response to ACh alone” value was determined as 0.94 ± 0.06; the “No ACh: agonist effect of the allosteric ligand by itself, fraction of the maximal response that could be elicited by ACh” value worked out at 0.03 ± 0.00.
On to `O=C1C(=O)N(Cc2ccc(O)cc2)c2ccccc21` [Compound 10, 1-(4-hydroxybenzyl)indoline-2,3-dione], for which the “MTC (maximum tolerated concentration)” value in data set [1] stood at 10 µM. In data set [2], the Therap. index came to 3.3, the Distance moved was 72.4 ± 8.6* %, the Variance turn angle is reported as 135.3 ± 13.5* % and the MEC came to 3 µM. In data set [3], this compound showed an Angular velocity of 131.2 ± 13.4 %. In addition, in data set [4], the “0.1 µM ACh: response with modulator present divided by response to ACh alone” value is on record as 1.42 ± 0.24; the “100 µM ACh: response with modulator present divided by response to ACh alone” value came to 0.92 ± 0.06; the “No ACh: agonist effect of the allosteric ligand by itself, fraction of the maximal response that could be elicited by ACh” value worked out at 0.01 ± 0.01.
For the compound `O=C1C(=O)N(Cc2cc(F)c(F)c(F)c2)c2ccccc21` [Compound 8i, 1-(3,4,5-trifluorobenzyl)indoline-2,3-dione], the “MTC (maximum tolerated concentration)” value in data set [1] is 10 µM. Moreover, in data set [2], the Therap. index turned out to be 10, the Distance moved is recorded as 11.6 ± 1.2*** %, the Variance turn angle is 146.1 ± 16.1** % and the MEC turned out to be 1 µM. The same compound yielded an Angular velocity in data set [3] of 412.1 ± 28.7 %. In addition, in data set [4], the “0.1 µM ACh: response with modulator present divided by response to ACh alone” value is 1.47 ± 0.12; the “100 µM ACh: response with modulator present divided by response to ACh alone” value is recorded as 1.04 ± 0.02; the “No ACh: agonist effect of the allosteric ligand by itself, fraction of the maximal response that could be elicited by ACh” value is 0.06 ± 0.01.
Regarding `COc1ccc(CN2C(=O)C(=O)c3ccccc32)cc1F` [Compound 8h, 1-(3-fluoro-4-methoxybenzyl)indoline-2,3-dione], the “MTC (maximum tolerated concentration)” value in data set [1] was determined as 30 µM. For the same compound, in data set [2], the Therap. index came out at 10, the Distance moved was 52.7 ± 6.6*** %, the Variance turn angle is on record as 148.0 ± 12.4*** % and the MEC was found to be 3 µM. In addition, the Angular velocity in data set [3] was 201.4 ± 27.5 %. Besides, in data set [4], the “0.1 µM ACh: response with modulator present divided by response to ACh alone” value came out at 1.32 ± 0.10; the “100 µM ACh: response with modulator present divided by response to ACh alone” value was determined as 0.97 ± 0.06; the “No ACh: agonist effect of the allosteric ligand by itself, fraction of the maximal response that could be elicited by ACh” value turned out to be 0.05 ± 0.03.
In the case of `CCCCc1oc2ccccc2c1C(=O)c1cc(I)c(OCCN(CC)C(C)=O)c(I)c1` [Compound 5, N-(2-(4-(2-butylbenzofuran-3-carbonyl)-2,6-diiodophenoxy)ethyl)-N-ethylacetamide], the “MTC (maximum tolerated concentration)” value in data set [1] was found to be 10 µM. For the same compound, in data set [2], the Distance moved came out at 108.0 ± 12.9%, the Variance turn angle is reported as 102.5 ± 8.1% and the MEC is reported as over 10 µM. This compound also came in with an Angular velocity in data set [3] of 104.0 ± 10.7%. For the same compound, in data set [4], the “0.1 µM ACh: response with modulator present divided by response to ACh alone” value turned out to be 1.86 ± 0.42; the “100 µM ACh: response with modulator present divided by response to ACh alone” value was determined as 1.47 ± 0.09; the “No ACh: agonist effect of the allosteric ligand by itself, fraction of the maximal response that could be elicited by ACh” value was determined as 0.22 ± 0.03. Besides, in data set [4] (modulators at 10 µM (amiodarone 30 µM)), the “Effect on M1 receptor activity and ACh response, in words” value is “significant intrinsic agonist activity”.
As for `CCCCc1oc2ccc(NS(C)(=O)=O)cc2c1C(=O)c1ccc(OCCCN(CCCC)CCCC)cc1` [Dronedarone, reference compound], the “MTC (maximum tolerated concentration)” value in data set [1] amounted to 10 µM. In data set [2], the Therap. index was 1, the Distance moved is given as 28.3 ± 5.3*** %, the Variance turn angle is reported as 141.6 ± 12.5*** % and the MEC was determined as 10 µM. The same compound showed an Angular velocity in data set [3] of 172.8 ± 25.7 %. In data set [4], the “0.1 µM ACh: response with modulator present divided by response to ACh alone” value turned out to be 0.25 ± 0.05; the “100 µM ACh: response with modulator present divided by response to ACh alone” value came to 0.75 ± 0.07; the “No ACh: agonist effect of the allosteric ligand by itself, fraction of the maximal response that could be elicited by ACh” value is 0.08 ± 0.01.
For `COc1ccc(CN2C(=O)C(=O)c3ccccc32)cc1I` [Compound 8b, 1-(3-iodo-4-methoxybenzyl)indoline-2,3-dione], in data set [1], the “MTC (maximum tolerated concentration)” value is on record as 10 µM. Besides, in data set [2], the Therap. index was found to be 10, the Distance moved is reported as 52.7 ± 6.6*** %, the Variance turn angle is reported as 143.0 ± 13.5** % and the MEC was 1 µM. The compound also yielded an Angular velocity in data set [3] of 175.3 ± 19.0 %. Further, in data set [4], the “0.1 µM ACh: response with modulator present divided by response to ACh alone” value came out at 2.13 ± 0.08; the “100 µM ACh: response with modulator present divided by response to ACh alone” value turned out to be 1.24 ± 0.01; the “No ACh: agonist effect of the allosteric ligand by itself, fraction of the maximal response that could be elicited by ACh” value is recorded as 0.08 ± 0.01.

For the origin of these results see PMC11213934, “Allosteric modulators of M1 muscarinic receptors enhance acetylcholine efficacy and decrease locomotor activity and turning behaviors in zebrafish” (Scientific Reports, 2024).
